Measured values taken from paper PMC8999638, “Identification of Entry Inhibitors against Delta and Omicron Variants of SARS-CoV-2” (International Journal of Molecular Sciences, 2022).
Several values for one entry are separate records, joined by “and”; a condition that tells them apart may be missing. Identical values can stand only once. Counter-ions that a name gives are not always drawn. Like-named read-outs stand apart in the source and are kept apart here.

What was measured:
NanoBiT = assay: Negative screening HiBiT assay (NanoBiT activity); format: cell-based; details: for Negative Screening HiBiT Assay % Inhibition (20 μM): 20 μM drug; for Negative Screening HiBiT Assay % Inhibition (100 μM): 100 μM drug; for Negative Screening HiBiT Assay INHIBIT NanoBiT: >70% inhibition in 100 μM, then including >35% inhibition at 20 μM
[1] = molecular target: RBD-ACE2 attachment (RBD of viral spike protein and ACE2 receptor) (Severe acute respiratory syndrome coronavirus 2, UniProt P0DTC2); assay: cell-based; design: species or system SARS-CoV-2; human; details: for inhibition at 20 µM / inhibition at 100 µM: HeLa; for inhibition at 20 µM: read-out: Positive Screening RBD Attachment Assay % Inhibition (20 μM); for inhibition at 100 µM: read-out: Positive Screening RBD Attachment Assay % Inhibition (100 μM)
in vitro = details: African green monkey
SARS-CoV-2 = assay: microbe, parasite or virus in culture; format: cell-based; details: for EC50: Severe acute respiratory syndrome coronavirus 2, Vero C1008, 120 h, read-out: EC50 SARS-CoV-2 PRNT
[2] = tested on: spike-based pseudovirus (wild type) on SmBiT-ACE2 HeLa cells; assay: microbe, parasite or virus in culture; format: cell-based, SARS-CoV-2
VERO E6 cells = details: for CC50: read-out: VeroE6 CC50, VERO E6 cells, CellTiter-Glo
[3] = VeroE6 CC50, VERO E6 cells, CellTiter-Glo
[4] = Pseudovirus, HeLa, read-out: EC50 Pseudovirus Wild Type

Molecule	Negative Screening HiBiT Assay % Inhibition (20 μM) (NanoBiT)	Negative Screening HiBiT Assay % Inhibition (100 μM) (NanoBiT)	Negative Screening HiBiT Assay INHIBIT NanoBiT (NanoBiT)	Positive Screening RBD Attachment Assay Dose Response [1]	inhibition at 20 µM [1]	inhibition at 100 µM [1]	CC50 (in vitro; [3])	other results
CC1(C)CCC(CN2CCN(c3ccc(C(=O)NS(=O)(=O)c4ccc(NCC5CCOCC5)c([N+](=O)[O-])c4)c(Oc4cnc5[nH]ccc5c4)c3)CC2)=C(c2ccc(Cl)cc2)C1 [ABT-199]	0%	43%	No	Yes	51%	96%	17.3 µM	EC50 [1]: 39.1 µM
O=C1CCc2ccc(OCCCCN3CCN(c4cccc(Cl)c4Cl)CC3)cc2N1 [Aripiprazole]	13%	21%	No	–	–	–	14 µM	–
O=C1C(O)=C([C@H]2CC[C@H](c3ccc(Cl)cc3)CC2)C(=O)c2ccccc21 [Atovaquone]	54%	96%	Yes	Yes	39%	95%	–	–
CCCC(=O)OCOC(=O)C1=C(C)NC(C)=C(C(=O)OC)C1c1cccc(Cl)c1Cl (centres unmarked) [Clevidipine butyrate]	79%	93%	Yes	Yes	–	–	–	Positive Screening RBD Attachment Assay % Inhibition (20 μM) [1]: 69%; Positive Screening RBD Attachment Assay % Inhibition (100 μM) [1]: 93%
CN(C)c1ccc(C(=C2C=CC(=[N+](C)C)C=C2)c2ccc(N(C)C)cc2)cc1 [Crystal Violet]	17%	86%	Yes	Yes	73%	99%	–	–
CC(C)(C)c1nc(-c2cccc(NS(=O)(=O)c3c(F)cccc3F)c2F)c(-c2ccnc(N)n2)s1 [Dabrafenib (GSK2118436), Dabrafenib]	88%	97%	Yes	Yes	85%	96%	–	–
C[C@@H]1CCO[C@H]2Cn3cc(C(=O)NCc4ccc(F)cc4F)c(=O)c(O)c3C(=O)N12 [Dolutegravir sodium]	1%	62%	No	Yes	> 70%	96%	> 100 µM	EC50 (SARS-CoV-2): 4.2 µM; EC50 [1]: 14.6 µM; EC50 ([2]; Pseudovirus, HeLa, read-out: EC50 (nM) (Wild type)): 22.9 nM; EC50 [2, 4]: 40 nM; Cytotoxicity to VeroE6 cells (VERO E6 cells; VeroE6 cells): not toxic
CCCCc1oc2ccc(NS(C)(=O)=O)cc2c1C(=O)c1ccc(OCCCN(CCCC)CCCC)cc1 [Dronedarone hydrochloride]	21%	86%	Yes	Yes	41%	93%	–	–
Cc1cc(C#N)cc(C)c1Oc1nc(Nc2ccc(C#N)cc2)nc(N)c1Br [Etravirine]	0%	31%	No	Yes	> 70%	90%	> 100 µM	EC50 (SARS-CoV-2): 7.7 µM; EC50 [1]: 2.3 µM; EC50 [2, 4]: 6 nM; EC50 ([2]; Pseudovirus, HeLa, read-out: EC50 pseudovirus neutralization assay): 5.8 nM; Cytotoxicity to VeroE6 cells (VERO E6 cells; VeroE6 cells): not toxic
CCOC(=O)C1=C(C)NC(C)=C(C(=O)OC)C1c1cccc(Cl)c1Cl (centres unmarked) [Felodipine]	88%	99%	Yes	Yes	63%	96%	–	–
CC[C@H](C)[C@H]1O[C@]2(CC[C@@H]1C)C[C@@H]1C[C@@H](C/C=C(\C)[C@@H](O[C@H]3C[C@H](OC)[C@@H](O[C@H]4C[C@H](OC)[C@@H](O)[C@H](C)O4)[C@H](C)O3)[C@@H](C)/C=C/C=C3\CO[C@@H]4[C@H](O)C(C)=C[C@@H](C(=O)O1)[C@]34O)O2 [Ivermectin]	0%	4%	No	Yes	29%	68%	11.9 µM	blocked SARS-CoV-2 infection (PRNT) (SARS-CoV-2; 10 μM): 60%; EC50 ([1]; read-out: EC50 RBD Attachment): 22.8 µM; EC50 [2, 4]: 5900 nM
Clc1ccc(COC(Cn2ccnc2)c2ccc(Cl)cc2Cl)c(Cl)c1 (centres unmarked) [Miconazole nitrate]	3%	12%	No	–	–	–	–	CC50 (VERO E6 cells): 16.9 µM
Clc1ccc(COC(Cn2ccnc2)c2ccc(Cl)cc2Cl)c(Cl)c1 (centres unmarked) [Miconazole]	6%	15%	No	–	–	–	14 µM	–
COC(=O)C1=C(C)NC(C)=C(C(=O)OCCN(C)Cc2ccccc2)C1c1cccc([N+](=O)[O-])c1 (centres unmarked) [Nicardipine hydrochloride]	64%	88%	Yes	Yes	58%	86%	–	–
COCCOC(=O)C1=C(C)NC(C)=C(C(=O)OC(C)C)C1c1cccc([N+](=O)[O-])c1 (centres unmarked) [Nimodipine]	79%	97%	Yes	Yes	64%	96%	–	–
CC(=O)Oc1ccccc1C(=O)Nc1ncc([N+](=O)[O-])s1 [Nitazoxanide]	77%	95%	Yes	Yes	69%	93%	–	–
OCCOc1ccc(/C(=C(/CCCl)c2ccccc2)c2ccccc2)cc1 [Ospemifene]	3%	8%	No	Yes	39%	68%	–	EC50 ([1]; EC50 RBD Attachment): 56.2 µM; CC50 (in vitro; VeroE6 CC50): > 100 µM; Cytotoxicity to VeroE6 cells (VERO E6 cells): not toxic
Nc1ccc(/N=N/c2ccccc2)c(N)n1 [Phenazopyridine hydrochloride]	48%	83%	Yes	Yes	52%	91%	–	–
CCCCCCCCCCCCCCCC[N+](C)(C)CCN(Cc1ccc(OC)cc1)c1ncccn1 [Thonzonium Bromide]	36%	52%	Yes	Yes	93%	99%	–	–
Gramicidin	0%	35%	No	Yes	–	–	–	Positive Screening RBD Attachment Assay % Inhibition (100 μM) [1]: 95%; EC50 ([1]; read-out: EC50 RBD Attachment): 5.3 µM; EC50 ([2]; read-out: EC50 Pseudovirus Wild Type): ~1200 nM and 1200 nM; CC50 (VERO E6 cells): 3.9 µM
